Results taken from US12371439B2, “Crystalline form B of tetrahydrothienopyridine compound, preparation method, composition and application thereof” (Chengdu Shibeikang Biomedical Technology Co. Ltd., priority 2019, dated 2025).

Assay: Stability investigation of the crystalline forms (HPLC purity, samples placed open and flat)
Type: physicochemical
Description: The crystalline forms of the compound of formula I obtained from each example and each comparative preparation example were analyzed by HPLC.
Instrument and equipment: Agilent-1100 High Performance Liquid Chromatograph;
Chromatographic conditions and system suitability test: octadecylsilane-bonded silica gel was used as a filler; water (pH adjusted to 3.8 with phosphoric acid):acetonitrile (45:55) was used as a mobile phase; detection wavelength was 220 nm; theoretical tower plate number should not be less than 2000; the resolution should not be less than 2.0; and the resolution from other adjacent impurity peaks should meet the requirements.
Test solution: an appropriate amount of the compound obtained from each example was accurately weighed, dissolved in anhydrous ethanol, and diluted quantitatively to prepare a solution containing about 1 mg compound per 1 ml solution as the test solution.
Reference solution: 1 ml of reference solution of the compound of formula I was accurately measured, and placed into a 100 ml volumetric flask, diluted with anhydrous ethanol to the scale, and shaken well to obtain the reference solution. Reference substance: calibrated standard substance of the compound of formula I provided by Chengdu Shibeikang Biomedical Technology Co., Ltd.
Determination method: according to General Chapter 0512 High Performance Liquid Chromatography in Chinese Pharmacopoeia (2015 Edition) Volume IV, 10 μl of the test solution and 10 μl of the reference solution were accurately measured respectively, and injected into the liquid chromatograph to record chromatograms.
Samples of the crystalline form B from each Example and the crystalline form from each comparative preparation example were placed in an open and flat way to investigate 5-day stability and 10-day stability of the samples under the conditions of light (4500 Lux), heating at 40° C. and 60° C. and high humidity of 75% and 90%, respectively. The detection was carried out according to the determination method in Test 1, and HPLC purity detection results were shown in the table below.

Structure (SMILES) | HPLC purity Day 0 (%) (heating at 40° C.) | HPLC purity Day 5 (%) (heating at 40° C.) | HPLC purity Day 10 (%) (heating at 40° C.) | HPLC purity Day 0 (%) (heating at 60° C.) | HPLC purity Day 5 (%) (heating at 60° C.) | HPLC purity Day 10 (%) (heating at 60° C.) | HPLC purity Day 0 (%) (high humidity of 90%) | HPLC purity Day 5 (%) (high humidity of 90%) | HPLC purity Day 10 (%) (high humidity of 90%) | HPLC purity Day 0 (%) (light (4500 Lux)) | HPLC purity Day 5 (%) (light (4500 Lux)) | HPLC purity Day 10 (%) (light (4500 Lux))
COC(=O)[C@H](c1ccccc1Cl)N1CC[C@@H]2SC(=O)C=C2C1 (racemic) [Comparative preparation example 1, methyl (S)-2-(2-chlorophenyl)-2-((S)-2-oxo-2,6,7,7a-tetrahydrothieno[3,2-c]pyridin-5(4H)-yl)acetate, reference compound] | 96.89 | 96.31 | 95.35 | 96.89 | 95.45 | 94.37 | 96.89 | 96.75 | 96.69 | 96.89 | 96.80 | 96.75
COC(=O)[C@H](c1ccccc1Cl)N1CC[C@@H]2SC(=O)C=C2C1 (racemic) [Comparative preparation example 2, methyl (S)-2-(2-chlorophenyl)-2-((S)-2-oxo-2,6,7,7a-tetrahydrothieno[3,2-c]pyridin-5(4H)-yl)acetate, reference compound] | 96.43 | 96.01 | 94.78 | 96.43 | 95.23 | 93.89 | 96.43 | 96.33 | 96.23 | 96.43 | 96.35 | 96.27
COC(=O)[C@H](c1ccccc1Cl)N1CC[C@@H]2SC(=O)C=C2C1 (racemic) [Comparative preparation example 3, methyl (S)-2-(2-chlorophenyl)-2-((S)-2-oxo-2,6,7,7a-tetrahydrothieno[3,2-c]pyridin-5(4H)-yl)acetate, reference compound] | 97.73 | 97.22 | 96.13 | 97.73 | 96.60 | 95.23 | 97.73 | 97.66 | 97.58 | 97.73 | 97.70 | 97.65
COC(=O)[C@H](c1ccccc1Cl)N1CC[C@@H]2SC(=O)C=C2C1 [Example 1, methyl (S)-2-(2-chlorophenyl)-2-((S)-2-oxo-2,6,7,7a-tetrahydrothieno[3,2-c]pyridin-5(4H)-yl)acetate] | 99.82 | 99.82 | 99.81 | 99.82 | 99.79 | 99.77 | 99.82 | 99.82 | 99.81 | 99.82 | 99.82 | 99.82
COC(=O)[C@H](c1ccccc1Cl)N1CC[C@@H]2SC(=O)C=C2C1 [Example 2, methyl (S)-2-(2-chlorophenyl)-2-((S)-2-oxo-2,6,7,7a-tetrahydrothieno[3,2-c]pyridin-5(4H)-yl)acetate] | 99.92 | 99.92 | 99.91 | 99.92 | 99.87 | 99.84 | 99.92 | 99.92 | 99.91 | 99.92 | 99.92 | 99.92
COC(=O)[C@H](c1ccccc1Cl)N1CC[C@@H]2SC(=O)C=C2C1 [Example 3, methyl (S)-2-(2-chlorophenyl)-2-((S)-2-oxo-2,6,7,7a-tetrahydrothieno[3,2-c]pyridin-5(4H)-yl)acetate] | 99.94 | 99.93 | 99.93 | 99.94 | 99.90 | 99.88 | 99.94 | 99.94 | 99.94 | 99.94 | 99.94 | 99.94
COC(=O)[C@H](c1ccccc1Cl)N1CC[C@@H]2SC(=O)C=C2C1 [Example 4, methyl (S)-2-(2-chlorophenyl)-2-((S)-2-oxo-2,6,7,7a-tetrahydrothieno[3,2-c]pyridin-5(4H)-yl)acetate] | 99.89 | 99.89 | 99.88 | 99.89 | 99.87 | 99.86 | 99.89 | 99.89 | 99.89 | 99.89 | 99.89 | 99.89

Next, values leading:

HPLC purity Day 0 (%) (heating at 40° C.) | HPLC purity Day 5 (%) (heating at 40° C.) | HPLC purity Day 10 (%) (heating at 40° C.) | HPLC purity Day 0 (%) (heating at 60° C.) | HPLC purity Day 5 (%) (heating at 60° C.) | HPLC purity Day 10 (%) (heating at 60° C.) | HPLC purity Day 0 (%) (high humidity of 90%) | HPLC purity Day 5 (%) (high humidity of 90%) | HPLC purity Day 10 (%) (high humidity of 90%) | HPLC purity Day 0 (%) (light (4500 Lux)) | HPLC purity Day 5 (%) (light (4500 Lux)) | HPLC purity Day 10 (%) (light (4500 Lux)) | Structure (SMILES)
99.87 | 99.87 | 99.87 | 99.87 | 99.85 | 99.85 | 99.87 | 99.87 | 99.86 | 99.87 | 99.87 | 99.86 | COC(=O)[C@H](c1ccccc1Cl)N1CC[C@@H]2SC(=O)C=C2C1 [Example 5, methyl (S)-2-(2-chlorophenyl)-2-((S)-2-oxo-2,6,7,7a-tetrahydrothieno[3,2-c]pyridin-5(4H)-yl)acetate]
99.91 | 99.91 | 99.90 | 99.91 | 99.89 | 99.88 | 99.91 | 99.91 | 99.90 | 99.91 | 99.91 | 99.90 | COC(=O)[C@H](c1ccccc1Cl)N1CC[C@@H]2SC(=O)C=C2C1 [Example 6, methyl (S)-2-(2-chlorophenyl)-2-((S)-2-oxo-2,6,7,7a-tetrahydrothieno[3,2-c]pyridin-5(4H)-yl)acetate]
99.88 | 99.88 | 99.88 | 99.88 | 99.85 | 99.84 | 99.88 | 99.88 | 99.87 | 99.88 | 99.88 | 99.87 | COC(=O)[C@H](c1ccccc1Cl)N1CC[C@@H]2SC(=O)C=C2C1 [Example 7, methyl (S)-2-(2-chlorophenyl)-2-((S)-2-oxo-2,6,7,7a-tetrahydrothieno[3,2-c]pyridin-5(4H)-yl)acetate]
